Laboratory results reported in ChEMBL document CHEMBL2176999, “Update on the development of antagonists of chemoattractant receptor-homologous molecule expressed on Th2 cells (CRTH2). From lead optimization to clinical proof-of-concept in asthma and allergic rhinitis” (J Med Chem, 2012).
Blank lines part the entries; values can stand above or below the compound they belong to.

Key:
[1] = molecular target: T1, Prostaglandin D2 receptor 2 (Homo sapiens, UniProt Q9Y5Y4); assay: Displacement of [3H]PGD2 from human CRTH2 expressed in K562 cells after 60 mins by scintillation counting in presence of 4% human serum albumin; assay type: cell-based
T1 sequence (Q9Y5Y4 whole entry): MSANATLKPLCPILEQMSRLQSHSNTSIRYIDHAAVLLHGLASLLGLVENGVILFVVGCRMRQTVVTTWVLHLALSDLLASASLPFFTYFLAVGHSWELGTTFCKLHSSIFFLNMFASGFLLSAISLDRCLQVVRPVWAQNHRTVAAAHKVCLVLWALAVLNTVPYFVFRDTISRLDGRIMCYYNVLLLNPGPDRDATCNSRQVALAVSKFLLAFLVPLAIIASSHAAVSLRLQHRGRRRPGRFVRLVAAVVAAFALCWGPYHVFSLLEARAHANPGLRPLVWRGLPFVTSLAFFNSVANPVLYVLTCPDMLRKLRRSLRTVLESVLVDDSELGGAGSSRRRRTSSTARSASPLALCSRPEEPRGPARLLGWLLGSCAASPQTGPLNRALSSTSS

[2] = molecular target: T1, Prostaglandin D2 receptor 2; assay: Displacement of [3H]PGD2 from human CRTH2 expressed in K562 cells after 60 mins by scintillation counting; assay type: cell-based
[3] = in vivo; conditions: rat
[4] = Oral bioavailability in rat; assay type: ADME, organism-based; conditions: in vivo
[5] = molecular target: Aldo-keto reductase family 1 member B1 (Rattus norvegicus, UniProt P07943); assay: Inhibition of rat aldose reductase
[6] = molecular target: T1, Prostaglandin D2 receptor 2; assay: Displacement of [3H]PGD2 from human CRTH2 expressed in HEK293 cells after 90 mins by TopCount analysis; assay type: cell-based
[7] = molecular target: Sodium-dependent serotonin transporter (Homo sapiens, UniProt P31645); assay: Inhibition of SERT
[8] = molecular target: T1, Prostaglandin D2 receptor 2; assay: Displacement of [3H]PGD2 from CRTH2 expressed in CHO cells after 1 hr by beta counting analysis; assay type: cell-based
[9] = molecular target: T1, Prostaglandin D2 receptor 2
Description: Inhibition of CRTH2 in human whole blood

[10] = molecular target: T1, Prostaglandin D2 receptor 2; remark: listed apart in the source
[11] = molecular target: T1, Prostaglandin D2 receptor 2; assay: Antagonistic activity at CRTH2 in human eosinophils assessed as inhibition of PGD2-induced calcium mobilization after 60 mins by Fluo-3 based fluorescence assay; assay type: functional

Sodium-dependent serotonin transporter, sequence (P31645 whole entry): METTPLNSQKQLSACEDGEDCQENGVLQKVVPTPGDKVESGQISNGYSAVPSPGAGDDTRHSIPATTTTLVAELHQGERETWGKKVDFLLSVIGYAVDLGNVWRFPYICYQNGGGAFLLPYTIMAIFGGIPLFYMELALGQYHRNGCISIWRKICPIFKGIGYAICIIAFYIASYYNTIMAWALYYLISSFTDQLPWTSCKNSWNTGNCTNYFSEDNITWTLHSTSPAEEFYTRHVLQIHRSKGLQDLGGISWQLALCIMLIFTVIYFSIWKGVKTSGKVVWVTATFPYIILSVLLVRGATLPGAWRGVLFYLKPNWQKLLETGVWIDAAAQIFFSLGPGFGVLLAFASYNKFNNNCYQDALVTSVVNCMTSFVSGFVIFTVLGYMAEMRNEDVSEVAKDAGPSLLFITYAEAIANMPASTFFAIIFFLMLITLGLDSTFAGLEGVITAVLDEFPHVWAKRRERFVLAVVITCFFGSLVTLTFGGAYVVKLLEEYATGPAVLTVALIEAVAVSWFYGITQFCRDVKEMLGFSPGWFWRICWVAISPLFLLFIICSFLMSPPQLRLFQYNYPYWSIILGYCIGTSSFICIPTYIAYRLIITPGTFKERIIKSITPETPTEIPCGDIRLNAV

SMILES: O=C(Nc1cccc(-c2ccc(Cl)cc2)n1)c1ccc(Oc2cc3c(cc2Cl)[C@H](C(=O)O)CCO3)cc1
IC50 [1]: 22 nM

SMILES: Cc1cc(CC(=O)O)c2c(C)c(Cc3ccccc3)c(=O)oc2c1
Ki [2]: 32 nM

SMILES: CN(C(=O)C1(C)CCc2c(c3ccccc3n2CC(=O)O)C1)c1cccc(Cl)c1 (stereo unspecified)
IC50 [6]: 1 nM

SMILES: Cc1c(Sc2ccc(Cl)cc2)c2ncccc2n1CC(=O)O
Ki [7]: 143 nM
Ki [8]: 143 nM

SMILES: CCN(Cc1cc(C(F)(F)F)ccc1-c1cc(CC(=O)O)ccc1OC)C(=O)C1CC1
IC50 [9]: 6.5 nM
Ki [10]: 13.5 nM

SMILES: C[C@H]1C[C@@H](N(C(=O)CCC(=O)O)c2ccccc2)c2ccccc2N1C(=O)c1ccccc1
IC50 [9]: 0.77 nM

SMILES: O=C(O)Cc1ccc(Oc2ccc(NC(=O)c3ccc(Cl)c(Cl)c3)cc2)c(CNS(=O)(=O)c2ccc(F)cc2)c1
Ki [10]: < 1000 nM

SMILES: CCc1nc2c(F)ccc(OCC(=O)O)c2c(OC(F)F)c1Cc1ccc(-n2cccn2)cc1
Ki [2]: 5.4 nM

SMILES: CCc1c(CC(=O)O)c(C2CC2)nn1Cc1ccc(NC(=O)c2ccc(C(F)(F)F)cc2)cc1
Ki [10]: 0.5 nM

SMILES: Cc1c(Sc2ccc(Cl)cc2)c2c(Cl)nccc2n1CC(=O)O
Ki [10]: 58 nM

SMILES: O=C(O)Cn1c2c(c3cc(F)ccc31)C[C@H](NC(=O)CC(c1ccccc1)c1ccccc1)CC2
IC50 [6]: 2 nM

SMILES: Cc1c(Sc2ccc(Cl)cc2)c2cc(Cl)ncc2n1CC(=O)O
Ki [10]: 106 nM

Further lines, results first:

half-life [3]: 3.5 h
bioavailability [4]: 100%
IC50 [5]: 550 nM
SMILES: Cc1c(Cc2ccc3ccccc3n2)c2cc(F)ccc2n1CC(=O)O [TIMAPIPRANT]

Ki [11]: 44 nM
IC50 [9]: 2400 nM
SMILES: Cc1c(CC(=O)O)c2cc(F)ccc2n1Cc1nc2ccccc2s1

IC50 [7]: 2000 nM
SMILES: Cc1ccc2c(c1)c(-c1ccnc3c(C)cccc13)c(C)n2CC(=O)O

Ki [11]: 9 nM
SMILES: Cc1c(CC(=O)O)c2cc(F)ccc2n1Cc1ccc2ccccc2c1

IC50 [9]: 343 nM
SMILES: Cc1c(Cc2nc3ccccc3s2)c2cc(F)ccc2n1CC(=O)O

Ki [11]: 15 nM
IC50 [9]: 812 nM
SMILES: Cc1c(Cc2ccc3ccccc3c2)c2cc(F)ccc2n1CC(=O)O

IC50 [9]: 8 nM
SMILES: Cc1c(Cc2ccc(S(C)(=O)=O)cc2)c2cc(F)ccc2n1CC(=O)O

IC50 [9]: 106 nM
SMILES: Cc1c(CC(=O)O)c2cc(F)ccc2n1S(=O)(=O)c1ccc(S(C)(=O)=O)cc1
